Several values for one entry are separate records, joined by “and”; a condition that tells them apart may be missing. Identical values can stand only once.
Test system: NCI-H196 SCLC complex tumor spheroid viability
Test: Anticancer human tumor NCI-H196 cell line growth inhibition;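 note: spheroids exposed to compounds for 7 days before readout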;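 for viability, T/C: 100% = DMSO vehicle control wells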
Conditions: for viability, T/C: stronger effect = lower value
How it was run: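 Single agents and combinations were tested on spheroids built from tumor cells plus HUVEC and hMSC, at half-log dilutions starting at or near clinical Cmax, else 10 microM; final DMSO 0.25% (v/v).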

[1] = curve of first compound, second compound 1 µM
[2] = curve of first compound, second compound 3.16 µM
[3] = curve of first compound, second compound 10 µM
[4] = curve of first compound, second compound 31.6 µM
[5] = curve of first compound, second compound 100 µM
[6] = second compound 1 µM, first compound 0.0316 µM
[7] = second compound 1 µM, first compound 0.1 µM
[8] = second compound 1 µM, first compound 0.316 µM
[9] = second compound 1 µM, first compound 1 µM
[10] = second compound 1 µM, first compound 3.16 µM
[11] = second compound 1 µM, first compound 10 µM
[12] = second compound 3.16 µM, first compound 0.0316 µM
[13] = second compound 3.16 µM, first compound 0.1 µM
[14] = second compound 3.16 µM, first compound 0.316 µM
[15] = second compound 3.16 µM, first compound 1 µM
[16] = second compound 3.16 µM, first compound 3.16 µM
[17] = second compound 3.16 µM, first compound 10 µM
[18] = second compound 10 µM, first compound 0.0316 µM
[19] = second compound 10 µM, first compound 0.1 µM
[20] = second compound 10 µM, first compound 0.316 µM
[21] = second compound 10 µM, first compound 1 µM
[22] = second compound 10 µM, first compound 3.16 µM
[23] = second compound 10 µM, first compound 10 µM
[24] = second compound 31.6 µM, first compound 0.0316 µM
[25] = second compound 31.6 µM, first compound 0.1 µM
[26] = second compound 31.6 µM, first compound 0.316 µM
[27] = second compound 31.6 µM, first compound 1 µM
[28] = second compound 31.6 µM, first compound 3.16 µM
[29] = second compound 31.6 µM, first compound 10 µM
[30] = second compound 100 µM, first compound 0.0316 µM
[31] = second compound 100 µM, first compound 0.1 µM
[32] = second compound 100 µM, first compound 0.316 µM
[33] = second compound 100 µM, first compound 1 µM
[34] = second compound 100 µM, first compound 3.16 µM
[35] = second compound 100 µM, first compound 10 µM

COc1ccc([C@@H](O)c2cc(-c3ncnc4cc(N5CCOCC5)ccc34)c(F)cc2Cl)nn1 + CC[C@@]1(O)C(=O)OCc2c1cc1n(c2=O)Cc2cc3c(CN(C)C)c(O)ccc3nc2-1
IC50 (curve of first compound, second compound 0.003 µM): > 10 µM
IC50 (curve of first compound, second compound 0.00949 µM): > 10 µM
IC50 (curve of first compound, second compound 0.03 µM): 5.95 µM
IC50 (curve of first compound, second compound 0.0949 µM): 2.63 µM
IC50 (curve of first compound, second compound 0.3 µM): 2.61 µM
viability, T/C (second compound 0.003 µM, first compound 0.0316 µM): 100%
viability, T/C (second compound 0.003 µM, first compound 0.1 µM): 99.6%
viability, T/C (second compound 0.003 µM, first compound 0.316 µM): 90.8%
viability, T/C (second compound 0.003 µM, first compound 1 µM): 82.3%
viability, T/C (second compound 0.003 µM, first compound 3.16 µM): 69.2%
viability, T/C (second compound 0.003 µM, first compound 10 µM): 55.2%
viability, T/C (second compound 0.00949 µM, first compound 0.0316 µM): 98%
viability, T/C (second compound 0.00949 µM, first compound 0.1 µM): 97.1%
viability, T/C (second compound 0.00949 µM, first compound 0.316 µM): 95.5%
viability, T/C (second compound 0.00949 µM, first compound 1 µM): 88.9%
viability, T/C (second compound 0.00949 µM, first compound 3.16 µM): 65.7%
viability, T/C (second compound 0.00949 µM, first compound 10 µM): 52.8%
viability, T/C (second compound 0.03 µM, first compound 0.0316 µM): 93.5%
viability, T/C (second compound 0.03 µM, first compound 0.1 µM): 92.3%
viability, T/C (second compound 0.03 µM, first compound 0.316 µM): 88.1%
viability, T/C (second compound 0.03 µM, first compound 1 µM): 72.5%
viability, T/C (second compound 0.03 µM, first compound 3.16 µM): 58.6%
viability, T/C (second compound 0.03 µM, first compound 10 µM): 43.5%
viability, T/C (second compound 0.0949 µM, first compound 0.0316 µM): 99.8%
viability, T/C (second compound 0.0949 µM, first compound 0.1 µM): 102%
viability, T/C (second compound 0.0949 µM, first compound 0.316 µM): 93.5%
viability, T/C (second compound 0.0949 µM, first compound 1 µM): 70.2%
viability, T/C (second compound 0.0949 µM, first compound 3.16 µM): 46.2%
viability, T/C (second compound 0.0949 µM, first compound 10 µM): 39.5%
viability, T/C (second compound 0.3 µM, first compound 0.0316 µM): 107%
viability, T/C (second compound 0.3 µM, first compound 0.1 µM): 104%
viability, T/C (second compound 0.3 µM, first compound 0.316 µM): 88.8%
viability, T/C (second compound 0.3 µM, first compound 1 µM): 71.9%
viability, T/C (second compound 0.3 µM, first compound 3.16 µM): 43.1%
viability, T/C (second compound 0.3 µM, first compound 10 µM): 37.1%

Cc1cc(C)c(CNC(=O)c2cc(-c3ccc(CN4CCOCC4)cc3)cc3c2cnn3C2CCCC2)c(=O)[nH]1 + Cn1nnc2c(C(N)=O)ncn2c1=O
IC50 [1]: > 10 µM
IC50 [2]: > 10 µM
IC50 [3]: > 10 µM
IC50 [4]: > 10 µM
IC50 [5]: > 10 µM
viability, T/C [6]: 91%
viability, T/C [7]: 102%
viability, T/C [8]: 92.1%
viability, T/C [9]: 92.8%
viability, T/C [10]: 90.6%
viability, T/C [11]: 105%
viability, T/C [12]: 93.6%
viability, T/C [13]: 94.5%
viability, T/C [14]: 101%
viability, T/C [15]: 104%
viability, T/C [16]: 100%
viability, T/C [17]: 101%
viability, T/C [18]: 99.3%
viability, T/C [19]: 97.8%
viability, T/C [20]: 98.8%
viability, T/C [21]: 93.9%
viability, T/C [22]: 94.9%
viability, T/C [23]: 96%
viability, T/C [24]: 98.5%
viability, T/C [25]: 102%
viability, T/C [26]: 108%
viability, T/C [27]: 110%
viability, T/C [28]: 104%
viability, T/C [29]: 94.7%
viability, T/C [30]: 94.5%
viability, T/C [31]: 98.5%
viability, T/C [32]: 98.9%
viability, T/C [33]: 99%
viability, T/C [34]: 99.8%
viability, T/C [35]: 96%

Cc1cc(C)c(CNC(=O)c2cc(-c3ccc(CN4CCOCC4)cc3)cc3c2cnn3C2CCCC2)c(=O)[nH]1
viability, T/C (compound 0.0316 µM): 104% and 97.2% and 99.1%
viability, T/C (compound 0.1 µM): 96.1% and 97.9% and 103%
viability, T/C (compound 0.316 µM): 93.3% and 97% and 102%
viability, T/C (compound 1 µM): 91.3% and 96.2% and 98.9%
viability, T/C (compound 3.16 µM): 101% and 94% and 103%
viability, T/C (compound 10 µM): 106% and 103% and 111%
IC50 (curve of compound): > 10 µM

O=C(c1cc(Cc2n[nH]c(=O)c3ccccc23)ccc1F)N1CCN(C(=O)C2CC2)CC1 + Cn1nnc2c(C(N)=O)ncn2c1=O
IC50 [1]: > 30 µM
IC50 [2]: > 30 µM
IC50 [3]: > 30 µM
IC50 [4]: > 30 µM
IC50 [5]: > 30 µM
viability, T/C (second compound 1 µM, first compound 0.0949 µM): 102%
viability, T/C (second compound 1 µM, first compound 0.3 µM): 102%
viability, T/C (second compound 1 µM, first compound 0.949 µM): 93.3%
viability, T/C (second compound 1 µM, first compound 3 µM): 89.1%
viability, T/C (second compound 1 µM, first compound 9.49 µM): 86.1%
viability, T/C (second compound 1 µM, first compound 30 µM): 83.7%
viability, T/C (second compound 3.16 µM, first compound 0.0949 µM): 97.7%
viability, T/C (second compound 3.16 µM, first compound 0.3 µM): 94.3%
viability, T/C (second compound 3.16 µM, first compound 0.949 µM): 104%
viability, T/C (second compound 3.16 µM, first compound 3 µM): 98.1%
viability, T/C (second compound 3.16 µM, first compound 9.49 µM): 85.5%
viability, T/C (second compound 3.16 µM, first compound 30 µM): 79.8%
viability, T/C (second compound 10 µM, first compound 0.0949 µM): 99.6%
viability, T/C (second compound 10 µM, first compound 0.3 µM): 97.9%
viability, T/C (second compound 10 µM, first compound 0.949 µM): 92.6%
viability, T/C (second compound 10 µM, first compound 3 µM): 95.2%
viability, T/C (second compound 10 µM, first compound 9.49 µM): 92.4%
viability, T/C (second compound 10 µM, first compound 30 µM): 90.8%
viability, T/C (second compound 31.6 µM, first compound 0.0949 µM): 101%
viability, T/C (second compound 31.6 µM, first compound 0.3 µM): 101%
viability, T/C (second compound 31.6 µM, first compound 0.949 µM): 100%
viability, T/C (second compound 31.6 µM, first compound 3 µM): 106%
viability, T/C (second compound 31.6 µM, first compound 9.49 µM): 98.7%
viability, T/C (second compound 31.6 µM, first compound 30 µM): 86.8%
viability, T/C (second compound 100 µM, first compound 0.0949 µM): 95.6%
viability, T/C (second compound 100 µM, first compound 0.3 µM): 96.5%
viability, T/C (second compound 100 µM, first compound 0.949 µM): 98.7%
viability, T/C (second compound 100 µM, first compound 3 µM): 87.6%
viability, T/C (second compound 100 µM, first compound 9.49 µM): 86.7%
viability, T/C (second compound 100 µM, first compound 30 µM): 76.2%

CC(C)n1c(=O)n(C)c2cnc3cc(F)c(-c4ccc(OCCCN5CCCCC5)nc4)cc3c21 + Cn1nnc2c(C(N)=O)ncn2c1=O
IC50 [1]: > 10 µM
IC50 [2]: > 10 µM
IC50 [3]: > 10 µM
IC50 [4]: > 10 µM
IC50 [5]: > 10 µM
viability, T/C [6]: 93.1%
viability, T/C [7]: 102%
viability, T/C [8]: 91.8%
viability, T/C [9]: 99.7%
viability, T/C [10]: 101%
viability, T/C [11]: 93.6%
viability, T/C [12]: 94.3%
viability, T/C [13]: 102%
viability, T/C [14]: 101%
viability, T/C [15]: 119%
viability, T/C [16]: 100%
viability, T/C [17]: 94.2%
viability, T/C [18]: 90.8%
viability, T/C [19]: 97.7%
viability, T/C [20]: 98.4%
viability, T/C [21]: 106%
viability, T/C [22]: 106%
viability, T/C [23]: 95%
viability, T/C [24]: 103%
viability, T/C [25]: 103%
viability, T/C [26]: 101%
viability, T/C [27]: 104%
viability, T/C [28]: 116%
viability, T/C [29]: 90.8%
viability, T/C [30]: 103%
viability, T/C [31]: 96.2%
viability, T/C [32]: 98.3%
viability, T/C [33]: 100%
viability, T/C [34]: 95.8%
viability, T/C [35]: 82.1%

Cn1nnc2c(C(N)=O)ncn2c1=O
viability, T/C (compound 1 µM): 95.3% [middle of 10 runs]
viability, T/C (compound 3.16 µM): 101% [middle of 10 runs]
viability, T/C (compound 10 µM): 104% [middle of 10 runs]
viability, T/C (compound 31.6 µM): 107% [middle of 10 runs]
IC50 (compound alone, run of 11/07/2019): > 100 µM

— PubChem BioAssay AID1845208 (Molecular Pharmacology Branch, DTP, NCI, 2023)
